# Data from ChEMBL document CHEMBL1153594, “Design, synthesis and biological evaluation of novel 2-[(2,4-diaryl-3-azabicyclo[3.3.1]nonan-9-ylidene)hydrazono]-1,3-thiazolidin-4-ones as a new class of antimicrobial agents” (2009).
# Active and inactive are the calls of the source. The calls are words filed in the database; no cut-off is given here.
# Assays:
# Klebsiella pneumoniae [1] = test: Antibacterial activity against Klebsiella pneumoniae ATCC 15490 after 24 hrs by twofold serial dilution method; assay type: functional; details: ATCC 15490, 24 h
# Cryptococcus neoformans = test: Antifungal activity against Cryptococcus neoformans ATCC 3312 after 72 to 96 hrs by twofold serial dilution method; assay type: functional
# Aspergillus flavus [2] = test: Antifungal activity against Aspergillus flavus ATCC 485 after 72 to 96 hrs by twofold serial dilution method; assay type: functional
# Escherichia coli [3] = test: Antibacterial activity against Escherichia coli ATCC 25835 after 24 hrs by twofold serial dilution method; assay type: functional; details: ATCC 25835, 24 h
# [4] = system: Salmonella enterica subsp. enterica; test: Antibacterial activity against Salmonella typhi ATCC 24915 after 24 hrs by twofold serial dilution method; assay type: functional, Salmonella enterica subsp. enterica serovar Typhi; details: ATCC 24915, 24 h
# Rhizopus [5] = test: Antifungal activity against Rhizopus sp. ATCC 2915 at 200 ug/mL after 72 to 96 hrs by twofold serial dilution method; assay type: functional, organism-based
# Candida albicans [6] = test: Antifungal activity against Candida albicans ATCC 3122 by twofold serial dilution method; assay type: functional
# Staphylococcus aureus = test: Antibacterial activity against Staphylococcus aureus ATCC 25825 after 24 hrs by twofold serial dilution method; assay type: functional; details: ATCC 25825, 24 h
# Aspergillus niger [7] = test: Antifungal activity against Aspergillus niger ATCC 598 after 72 to 96 hrs by twofold serial dilution method; assay type: functional
# Bacillus subtilis = test: Antibacterial activity against Bacillus subtilis ATCC 451 after 24 hrs by twofold serial dilution method; assay type: functional; details: ATCC 451, 24 h
# Rhizopus [8] = test: Antifungal activity against Rhizopus sp. ATCC 2915 after 72 to 96 hrs by twofold serial dilution method; assay type: functional
# Aspergillus flavus [9] = test: Antifungal activity against Aspergillus flavus ATCC 485 at 200 ug/mL after 72 to 96 hrs by twofold serial dilution method; assay type: functional, organism-based
# Escherichia coli [10] = test: Antibacterial activity against Escherichia coli ATCC 25835 at 200 ug/mL after 24 hrs by twofold serial dilution method; assay type: functional, organism-based
# [11] = system: Salmonella enterica subsp. enterica; test: Antibacterial activity against Salmonella typhi ATCC 24915 at 200 ug/mL after 24 hrs by twofold serial dilution method; assay type: functional, organism-based; details: Salmonella enterica subsp. enterica serovar Typhi
# Aspergillus niger [12] = test: Antifungal activity against Aspergillus niger ATCC 598 at 200 ug/mL after 72 to 96 hrs by twofold serial dilution method; assay type: functional, organism-based
# Klebsiella pneumoniae [13] = test: Antibacterial activity against Klebsiella pneumoniae ATCC 15490 at 200 ug/mL after 24 hrs by twofold serial dilution method; assay type: functional, organism-based
# Candida albicans [14] = test: Antifungal activity against Candida albicans ATCC 3122 at 200 ug/mL by twofold serial dilution method; assay type: functional, organism-based
SMILES,MIC (Klebsiella pneumoniae [1]),MIC (Cryptococcus neoformans),MIC (Aspergillus flavus [2]),MIC (Escherichia coli [3]),MIC [4],MIC (Rhizopus [5]),MIC (Candida albicans [6]),MIC (Staphylococcus aureus),MIC (Aspergillus niger [7]),MIC (Bacillus subtilis),MIC (Rhizopus [8]),MIC (Aspergillus flavus [9]),MIC (Escherichia coli [10]),MIC [11],MIC (Aspergillus niger [12]),MIC (Klebsiella pneumoniae [13]),MIC (Candida albicans [14])
NC(=S)NN=C1C2CCCC1C(c1ccccc1)NC2c1ccccc1 (stereo not given),200 µg/mL,100 µg/mL,200 µg/mL,100 µg/mL,200 µg/mL,inactive,200 µg/mL,50 µg/mL,200 µg/mL,100 µg/mL,,,,,,,
NC(=S)NN=C1C2CCCC1C(c1ccccc1Cl)NC2c1ccccc1Cl (stereo not given),50 µg/mL,100 µg/mL,100 µg/mL,100 µg/mL,50 µg/mL,,200 µg/mL,200 µg/mL,100 µg/mL,100 µg/mL,25 µg/mL,,,,,,
O=C1CS/C(=N\N=C2C3CCCC2C(c2ccc(Cl)cc2)NC3c2ccc(Cl)cc2)N1 (stereo not given),50 µg/mL,12.5 µg/mL,100 µg/mL,100 µg/mL,6.25 µg/mL,,25 µg/mL,6.25 µg/mL,25 µg/mL,25 µg/mL,6.25 µg/mL,,,,,,
C[C@@H]1[C@H](O)[C@@H](C)/C=C/C=C/C=C/C=C/C=C/C=C/C=C/[C@H](O[C@@H]2O[C@H](C)[C@@H](O)[C@H](N)[C@@H]2O)C[C@@H]2O[C@](O)(C[C@@H](O)C[C@@H](O)[C@H](O)CC[C@@H](O)C[C@@H](O)CC(=O)O[C@H]1C)C[C@H](O)[C@H]2C(=O)O [AMPHOTERICIN B],,25 µg/mL,50 µg/mL,,,,25 µg/mL,,50 µg/mL,,25 µg/mL,,,,,,
O=C1CS/C(=N\N=C2C3CCCC2C(c2ccc(F)cc2)NC3c2ccc(F)cc2)N1 (stereo not given),100 µg/mL,25 µg/mL,100 µg/mL,50 µg/mL,12.5 µg/mL,,6.25 µg/mL,6.25 µg/mL,200 µg/mL,25 µg/mL,100 µg/mL,,,,,,
COc1cccc(C2NC(c3cccc(OC)c3)C3CCCC2C3=NNC(N)=S)c1 (stereo not given),100 µg/mL,100 µg/mL,,25 µg/mL,200 µg/mL,,50 µg/mL,50 µg/mL,50 µg/mL,50 µg/mL,100 µg/mL,inactive,,,,,
NC(=S)NN=C1C2CCCC1C(c1ccc(F)cc1)NC2c1ccc(F)cc1 (stereo not given),100 µg/mL,25 µg/mL,6.25 µg/mL,,12.5 µg/mL,,50 µg/mL,50 µg/mL,100 µg/mL,25 µg/mL,100 µg/mL,,inactive,,,,
Cc1ccc(C2NC(c3ccc(C)cc3)C3CCCC2C3=NNC(N)=S)cc1 (stereo not given),100 µg/mL,200 µg/mL,,50 µg/mL,,,200 µg/mL,12.5 µg/mL,200 µg/mL,100 µg/mL,100 µg/mL,inactive,,inactive,,,
Cc1ccc(C2NC(c3ccc(C)cc3)C3CCCC2C3=N/N=C2/NC(=O)CS2)cc1 (stereo not given),25 µg/mL,100 µg/mL,25 µg/mL,50 µg/mL,100 µg/mL,,100 µg/mL,25 µg/mL,,25 µg/mL,50 µg/mL,,,,inactive,,
CN[C@@H]1[C@H](O[C@H]2[C@H](O[C@H]3[C@H](O)[C@@H](O)[C@H](N=C(N)N)[C@@H](O)[C@@H]3N=C(N)N)O[C@@H](C)[C@]2(O)C=O)O[C@@H](CO)[C@H](O)[C@H]1O [STREPTOMYCIN],25 µg/mL,,,12.5 µg/mL,50 µg/mL,,,50 µg/mL,,12.5 µg/mL,,,,,,,
NC(=S)NN=C1C2CCCC1C(c1cccc(F)c1)NC2c1cccc(F)c1 (stereo not given),25 µg/mL,25 µg/mL,50 µg/mL,100 µg/mL,50 µg/mL,,25 µg/mL,6.25 µg/mL,25 µg/mL,25 µg/mL,100 µg/mL,,,,,,
NC(=S)NN=C1C2CCCC1C(c1ccc(Cl)cc1)NC2c1ccc(Cl)cc1 (stereo not given),200 µg/mL,25 µg/mL,6.25 µg/mL,6.25 µg/mL,100 µg/mL,,25 µg/mL,25 µg/mL,100 µg/mL,100 µg/mL,50 µg/mL,,,,,,
O=C1CS/C(=N\N=C2C3CCCC2C(c2cccc(F)c2)NC3c2cccc(F)c2)N1 (stereo not given),,12.5 µg/mL,50 µg/mL,100 µg/mL,6.25 µg/mL,,6.25 µg/mL,100 µg/mL,100 µg/mL,50 µg/mL,6.25 µg/mL,,,,,inactive,
COc1ccc(C2NC(c3ccc(OC)cc3)C3CCCC2C3=NNC(N)=S)cc1 (stereo not given),100 µg/mL,50 µg/mL,100 µg/mL,50 µg/mL,200 µg/mL,,,25 µg/mL,200 µg/mL,50 µg/mL,200 µg/mL,,,,,,inactive
COc1ccc(C2NC(c3ccc(OC)cc3)C3CCCC2C3=N/N=C2/NC(=O)CS2)cc1 (stereo not given),25 µg/mL,50 µg/mL,,100 µg/mL,100 µg/mL,,100 µg/mL,6.25 µg/mL,100 µg/mL,50 µg/mL,200 µg/mL,inactive,,,,,
O=C1CS/C(=N\N=C2C3CCCC2C(c2ccccc2)NC3c2ccccc2)N1 (stereo not given),50 µg/mL,50 µg/mL,200 µg/mL,12.5 µg/mL,100 µg/mL,,50 µg/mL,50 µg/mL,,25 µg/mL,200 µg/mL,,,,inactive,,
O=C1CS/C(=N/N=C2C3CCCC2C(c2ccccc2Cl)NC3c2ccccc2Cl)N1 (stereo not given),,100 µg/mL,50 µg/mL,25 µg/mL,50 µg/mL,,50 µg/mL,100 µg/mL,25 µg/mL,100 µg/mL,6.25 µg/mL,,,,,inactive,
COc1cccc(C2NC(c3cccc(OC)c3)C3CCCC2C3=N/N=C2/NC(=O)CS2)c1 (stereo not given),50 µg/mL,100 µg/mL,200 µg/mL,50 µg/mL,6.25 µg/mL,,50 µg/mL,100 µg/mL,50 µg/mL,100 µg/mL,100 µg/mL,,,,,,
